Test results: patent publication US8361779B2, “Buffer compounds” (Sachem, Inc., priority 2010, dated 2013)
“Also recorded” adds a separate entry of the source. Where a name gives a salt, the structure may show the parent alone. Read-outs that look alike come from different tables or passages of the source.

How the values were obtained:
[1] = Est. pKa of Table 1 compounds (approximate measurements of pKa-values); format: physicochemical; details: for pKa: aqueous 80 mM KCl solution (pH titration with 100 mM KOH)
Experimental: This method is used when nonreactive impurities are >5% (HPLC), when reactive impurities are >1% (HPLC), when insufficient buffer is available or when noticeably poor curve fitting is seen in the above method. The experimental method is nearly the same as the above method, but the experimental volume-pH data are processed differently. Usually, only one or two titrations are carried out. The pKa is estimated to be the same as the pH of the titration curve at the half-equivalence point. The estimated pKa values can be as good at ±0.1 or as poor as ±0.5 depending on the nature and amounts of impurities.

[2] = pKa values quoted for buffers (buffer combinations table); format: physicochemical; details: for pKa of buffer in cationic/anionic buffer combinations / pKa: 25° C., ionic-strength 0.10 unless otherwise specified (b6); for pKa: aqueous solution, read-out: pKa of buffer in cationic/anionic buffer combinations
From the text: pH is a measurement of solvated hydrogen-ion activity, which is directly related to hydrogen ion concentration: −log [H^+]. […] Activity is a defined thermodynamic term and is related to concentration. At low concentration and low ionic-strength, activity approximately equals concentration. […] Such pKa values are more applicable to practical conditions than are thermodynamic pKa values where μ≈0. […] Initially, approximately equal concentrations are chosen.

[3] = Change in pKa of amine caused by proximal quaternary ammonium group; format: physicochemical
From the text: The presence of a quaternary ammonium (quat) group in a molecule that also contains an amine group will reduce the pKa of the amine as measured in aqueous media and polar nonaqueous media. […] All three effects as described will generally lead to some reduction of observed pKa in the molecule of interest. […] The amount of reduction in pKa depends on (1) the number of quat groups, (2) the distance of the quat group(s) from the amine and (3) the rigidity of the molecule that holds the quat group and amine in more fixed position with regard to each other.

[4] = tested on: Pseudomonas fluorescens ATCC 19020; assay: Microbial growth-inhibition assay, P. fluorescens; format: cell-based; details: 30° C., PM broth
Experimental: Microbial growth inhibition assays are carried out 96-well plates with well volume of 400 μL. In the present inventors' hands, data obtained in this manner are almost equivalent to that obtained in traditional shake flasks while data collection is more accurate and convenient. Two calibrated plate readers are used so that two plates, corresponding to a single organism, could be read at the same time. Each plate contains 80 cells for one organism and four buffers each at five concentrations (25, 50, 100, 225, 500 mM) with each buffer-concentration combination (20) being replicated four-fold. Each of these cells contained 50 μL of a fresh, calibrated cell culture plus 250 μL fresh sterile cell culture. In addition, each plate contained eight identical cells with 250 μL sterile, buffer-free growth medium plus 50 μL fresh cell culture and eight cells with 300 μL sterile growth medium and no organism. Microbial growth is measured by light-scattering/absorbance measurements at 600 nm every 15-60 minutes for the prescribed period. Every 15 minutes, each plate undergoes agitation/vibration which resuspends the organisms and promotes aeration; this process is repeated just prior to each absorbance reading. […] Each bottle of medium is heat sterilized (121° C., 15 psig, 20 minutes), cooled and, if necessary, the pH is readjusted to the proper value in a sterile fashion with 37% HCl or 50% NaOH.
Based upon prior experience with these organisms, a series of microbial growth measurements are carried out to determine optimal growth conditions. Four different media compositions unique to each organism each at four pH values (6.0, 6.5, 7.0, 7.5) are measured at three temperatures (23° C., 30° C., 37° C.). […]
The bacterial and yeast strains are grown up and counted several times in each respective growth medium obtain fresh, stable, reproducible cultures of known density as a function of time. […] When a culture reaches the proper microbial density (cfu/mL), two 96-well plates are quickly loaded as described above, and plate reading is started using two matched plate readers.

[5] = tested on: Escherichia coli, Pseudomonas fluorescens, Pichia pastoris, Saccharyomyces cerevisiae; assay: Microbial growth-inhibition assays, all four organisms; format: cell-based; details: for comparative growth behaviour between buffers: all four organisms, pH 7.0; for order of growth inhibition at higher concentrations: standard buffers
Experimental: Microbial growth inhibition assays are carried out 96-well plates with well volume of 400 μL. In the present inventors' hands, data obtained in this manner are almost equivalent to that obtained in traditional shake flasks while data collection is more accurate and convenient. Two calibrated plate readers are used so that two plates, corresponding to a single organism, could be read at the same time. Each plate contains 80 cells for one organism and four buffers each at five concentrations (25, 50, 100, 225, 500 mM) with each buffer-concentration combination (20) being replicated four-fold. Each of these cells contained 50 μL of a fresh, calibrated cell culture plus 250 μL fresh sterile cell culture. In addition, each plate contained eight identical cells with 250 μL sterile, buffer-free growth medium plus 50 μL fresh cell culture and eight cells with 300 μL sterile growth medium and no organism. Microbial growth is measured by light-scattering/absorbance measurements at 600 nm every 15-60 minutes for the prescribed period. Every 15 minutes, each plate undergoes agitation/vibration which resuspends the organisms and promotes aeration; this process is repeated just prior to each absorbance reading. For each medium, six bottles of sterile media are prepared, one for each buffer concentration (0, 30, 60, 120, 270, 600 mM) so that when each is diluted in the plate, the desired concentrations will be obtained. The media components (see below), added buffer and water are mixed, and the pH is adjusted to the proper value. Each bottle of medium is heat sterilized (121° C., 15 psig, 20 minutes), cooled and, if necessary, the pH is readjusted to the proper value in a sterile fashion with 37% HCl or 50% NaOH.
Based upon prior experience with these organisms, a series of microbial growth measurements are carried out to determine optimal growth conditions. Four different media compositions unique to each organism each at four pH values (6.0, 6.5, 7.0, 7.5) are measured at three temperatures (23° C., 30° C., 37° C.). Fortunately, combinations of near optimal growth conditions have been found so that the same pH of 7.0±0.1 could be used for all four organisms that are listed below:
Compositions of growth media are listed below for one liter of medium. pH is adjusted to 7.0±0.1 both before and after heat sterilization. Similar growth results are obtained when the added cationic buffer is added before heat-sterilization and after heat-sterilization via sterile filtration. Several useful growth media containing methanol are known for Pichia, but ME broth is equally good under the current conditions, and then evaporation of methanol is not a problem. Amounts below are given as g/L in sterilized growth medium.
The bacterial and yeast strains are grown up and counted several times in each respective growth medium obtain fresh, stable, reproducible cultures of known density as a function of time. Microbial counting is carried out in the usual fashion by using serial dilutions followed by plate counting. Each culture is diluted and plated three times, and the values are averaged. When a culture reaches the proper microbial density (cfu/mL), two 96-well plates are quickly loaded as described above, and plate reading is started using two matched plate readers.

[6] = Precision measurements of pKa-values by pH titration; format: physicochemical; details: titrated with 100 mM KOH, six titrations, 25° C., ionic-strength 0.10 unless otherwise specified (b6); for Meas. pKa: 10 mM buffer, 80 mM KCl
Experimental: High purity analytical quality reagents are used in these studies: potassium chloride, potassium hydroxide, primary standard potassium acid phthalate (KAP, Baker), 18 meg-ohm deionized doubly-distilled water (CO2-free). […] They are dried in a vacuum oven at 50° C. for 18-24 hours and stored in a glass desiccator over P2O5. The only remaining impurities are inert water/solvent and traces of residual HCl or HBr. Most buffers are stable in atmospheric air; a few are somewhat hygroscopic. During the weighing of the buffer compounds, care is taken to prevent or minimize absorption of atmospheric moisture. Solutions containing 10 mM buffer and 80 mM KCl are carefully prepared using degassed, deionized water and standardized volumetric flasks. Six independent pH titrations are carried out for each buffer compound using 100 mM carbonate-free KOH that is carefully standardized against KAP.
The titrator is controlled and data collected by LabX Titration software, version 2.5. The titration cell is thermostatically controlled at 10.00±0.05° C., 25.00±0.05° C. or 40.00±±0.05° C. Temperatures are measured using a NIST-traceable mercury thermometer. Titrations are adjusted so that the endpoint is close to 5 mL delivery point of the burette. Incremental titrations are carried out with increment volume of 100 μl and with continuous stirring; the system is allowed to settle after each incremental addition (10-30 sec) before a reading is recorded. Accurate, NIST-traceable buffers (±0.001 pH unit) with accurately known values at 2, 4, 7, 10, 12 in the temperature range 10-40° C. are used (Oakton Instruments, Vernon Hills, Ill.). The electrode is calibrated at pH=2, 4, 10 and 12. The pH=7 buffer is independently measured. If the pH=7 measurement is accurate to ±0.002 pH unit, a titration is carried out; if not, the calibration is repeated. A pH calibration is carried out before each titration experiment. […]

[7] = relative to trimethylamine, water at 25° C., μ=0.1, approximate numbers
[8] = single value, read-out: Est. pKa
[9] = HEPES, buffer combinations table

## CN(C)CCC[N+](C)(C)CCCP(=O)([O-])O [Compound 60, N,N,N′,N′-tetramethyl-N-(3-phosphonopropyl)-1,3-propanediammonium di-Inner salt]
[1]; wide-range buffer, higher pKa
  Est. pKa, second of two values: ~8.2
[1]; wide-range buffer, lower pKa
  Est. pKa, first of two values: ~6.8

## O=S(=O)(O)CCNC(CO)(CO)CO [TES (H+)]
[2]
  pKa of buffer in cationic/anionic buffer combinations: 7.5

## CN(C)CC=CC[N+](C)(C)C [n = 4 (trans —CH2CH═CHCH2—)]
[3]; [7]
  Change in pKa of Me2N—: ~−1.3 log K units

## CN(C)CC(O)C[N+](C)(CCCN(C)CCS(=O)(=O)O)CCS(=O)(=O)[O-] (centres unmarked) [Compound 59]
[1]; wide-range buffer, higher pKa, read-out: Est. pKa, second of two values
  pKa: ~8
[1]; wide-range buffer, lower pKa, read-out: Est. pKa, first of two values
  pKa: ~6.5

## CN1CCN(C)C1=NCC[N+](C)(C)C.Cl.[Cl-] [Compound 77, N(2-(1′,3′-dimethylimidazoline-2′-iminato)ethyl)trimethyl-ammonium chloride hydrochloride]
[1]; single value
  Est. pKa: ~11.1

## CN(C)CC(O)C[N+](C)(C)C (centres unmarked) [n = 3 (—CH2CH(OH)CH2—)]
[3]; [7]
  Change in pKa of Me2N—: ~−1.9 log K units

## CN(C)CC(O)C(O)C[N+](C)(C)C (centres unmarked) [n = 4 (—CH2CH(OH)CH(OH)CH2—)]
[3]; [7]
  Change in pKa of Me2N—: ~−1.1 log K units

## CN1CCC[N+](C)(C)CC1 [N,N′,N′-Me3-Homopiperazinium^+]
[3]; [7]
  Change in pKa of Me2N—: ~−3.6 log K units

## CCN(CC)CC(O)C[N+](C)(C)C.[Cl-] (centres unmarked) [Compound 10, N-(2-hydroxy-3-trimethylammonium-propyl)diethylamine chloride]
[4]
  comparative growth of Pseudomonas: DEAGA and MEAGA are clearly better than DIMEGA and DEGA
[2]
  pKa quoted in comparison of buffers with similar pKa values: 8.5
[5]
  comparative growth behaviour between buffers: TAPS (8.4) is better than DEGA

## CCN(CC)CCC[N+](C)(CC)CC [Compound 30a]
[1]; [8]
  pKa: ~8.7

## CCN(C(C)C)C1CC[N+](CC)(CC)CC1 [Compound 74a]
[1]; [8]
  pKa: ~7.4

## O=S(=O)(O)CCN1CCOCC1 [MES]
[5]
  comparative growth behaviour between buffers: about the same behavior

## O=S(=O)(O)CCCNC(CO)(CO)CO [TAPS]
[2]
  pKa quoted in comparison of buffers with similar pKa values: 8.4
[6]
  Meas. pKa: 8.410
[5]
  comparative growth behaviour between buffers: consistently the best of all eight buffers tested; also recorded: is better than DEGA
  order of growth inhibition at higher concentrations: TRIS>MES>TAPS

## C[N+](C)(C)CC(O)CC(=O)[O-] (centres unmarked) [Carnitine HCl]
[6]; aqueous solution of 10 mM buffer and 80 mM KCl, read-out: Meas. pKa
  pKa: 3.83

## CN(C)CCC[N+](C)(C)CCCS(=O)(=O)[O-] [Compound 57, N,N,N′,N′-tetramethyl-N-(3-sulfopropyl)-1,3-propanediamine Inner salt]
[1]; single value
  Est. pKa: ~8.1

## Br.CN(C)C(=NCCC[N+](C)(C)C)N(C)C.[Br-] [Compound 76, 2-(3-trimethylammoniumpropyl)-1,1,3,3-tetramethylguanidine bromide hydrobromide]
[1]; single value
  Est. pKa: ~12.9

## Br.CCOP(=O)(CCC[N+](C)(C)CCCN(C)C)OCC.[Br-] [Compound 79a, N,N,N′,N′-tetramethyl-N-(3-diethylphosphonopropyl)-1,3-propanediamine diethyl ester bromide•hydrobromide]
[1]; single value
  Est. pKa: ~8.1

## COCC(=O)O [Methoxyacetic Acid]
[2]
  pKa: 3.3

## CCN(CC)CC[N+](C)(CC)CC [Compound 28a]
[1]; [8]
  pKa: ~6.7

## O=S(=O)(O)CCNC1CCCCC1 [CHES (H+)]
[2]
  pKa of buffer in cationic/anionic buffer combinations: 9.4

## O=S(=O)(O)CCN1CCN(CCO)CC1 [HEPES]
[2]; [9]
  pKa1: 3.0
  pKa2: 7.5

## CN1CC[N+](C)(C)CC1 [N,N′,N′-Me3-Piperazinium^+]
[3]; [7]
  Change in pKa of Me2N—: ~−5.5 log K units

## C[N+](C)(C)CC(O)CNCCO.Cl.[Cl-] (centres unmarked) [Compound 78a, N-(3-trimethylammonium-2-hydroxypropyl)ethanolamine chloride hydrochloride]
[1]; single value
  Est. pKa: ~7.8

## CN(CCCS(=O)(=O)O)CC[N+](C)(C)CCCS(=O)(=O)[O-] [Compound 66, N,N′,N′-trimethyl-N,N′-bis(3-sulfopropyl)ethylenediammonium di-inner salt]
[1]; single value
  Est. pKa: ~5.5

## CN(C)CC(O)C[N+](C)(C)C.[Cl-] (centres unmarked) [Compound 8]
[4]
  comparative growth of Pseudomonas: DEAGA and MEAGA are clearly better than DIMEGA and DEGA
[2]
  pKa quoted in comparison of buffers with similar pKa values: 7.9
[5]
  comparative growth behaviour between buffers: is better than TRIS

## CN(C)C[N+](C)(C)C [n = 1* (—CH2—)]
[3]
  hydrolytic stability: Limited hydrolytic stability
[3]; [7]
  Change in pKa of Me2N—: ~−10.5 log K units

## CN(C)CC[N+](C)(C)C [n = 2 (—CH2CH2—)]
[3]; [7]
  Change in pKa of Me2N—: ~−3.7 log K units

## CN(C)CCCC[N+](C)(C)C [n = 4 (—CH2(CH2)2CH2—)]
[3]; [7]
  Change in pKa of Me2N—: ~−0.9 log K units

## CN(C)CCC[N+](C)(C)C [n = 3 (—CH2CH2CH2—)]
[3]; [7]
  Change in pKa of Me2N—: ~−1.7 log K units

## C[N+](C)(C)CC(O)CN(CCO)CCCS(=O)(=O)[O-] (centres unmarked) [Compound 51, N-(2-hydroxy-3-trimethylammoniumpropyl)-N-(2-hydroxyethyl)homotaurine inner salt]
[1]; single value
  Est. pKa: ~6.4

## OB(O)O [Boric Acid]
[2]
  pKa: 9

## CN(C)CCCCC[N+](C)(C)C [n = 5 (—CH2(CH2)3CH2—)]
[3]; [7]
  Change in pKa of Me2N—: ~−0.5 log K units

## CCN(CC)CCCCCC[N+](C)(CC)CC [Compound 34a]
[1]; [8]
  pKa: ~10.1

## NC(CO)(CO)CO [TRIS]
[4]
  comparative growth of Pseudomonas: all 5 cationic buffers being better than TRIS
[5]
  comparative growth behaviour between buffers: DIMEGA (7.9) is better than TRIS
  order of growth inhibition at higher concentrations: TRIS>MES>TAPS

## C[N+]12CCN(CC1)CC2 [N-Me-Diazabicyclo[2.2.2]octane^+]
[3]
  Change in pKa of Me2N—: ~−6.7 log K units

## CN(CCO)CC[N+](C)(C)CCO [Compound 20a]
[1]; [8]
  pKa: ~5.2

## C[N+](C)(C)CC(O)CNC(CO)(CO)CO (centres unmarked) [Compound 19a]
[1]; [8]
  pKa: ~5.8

## CN(CCC[N+](C)(CCS(=O)(=O)[O-])CC(O)C[N+](C)(C)Cc1ccccc1)CCS(=O)(=O)[O-] (centres unmarked) [Compound 81, 1-benzyl-1,1,5,9-tetramethyl-3-hydroxy-5,9-bis(2-sulfoethyl)-1,5,9-triazanonane, di-inner salt]
[1]; single value
  Est. pKa: ~6.1

## 1,1,5,9-tetramethyl-2-hydroxy-5,9-bis(2-sulfoethyl)-1,5,9-triazanonane di-inner salt [Compound 82]
[1]; wide-range buffer, higher pKa
  Est. pKa, second of two values: ~8.0
[1]; wide-range buffer, lower pKa
  Est. pKa, first of two values: ~6.5

## CN(C)CCCCCC[N+](C)(C)C [n = 6 (—CH2(CH2)4CH2—)]
[3]; [7]
  Change in pKa of Me2N—: ~−0.3 log K units

## O=S(=O)(O)CCCN1CCOCC1 [MOPS]
[6]
  Meas. pKa: 7.099

## CN(C)CCC[N+](C)(C)C.Cl.[Cl-] [Compound 29a, (3-trimethylammoniumpropyl) dimethylamine chloride hydrochloride]
[1]; single value
  Est. pKa: ~8.1
